Key:
Assay in all cases: Test G pre/postemergence
Assay type in all cases: in vivo
[1] = test system: bermudagrass (Cynodon dactylon)
In short: (§1)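 Seeds or nutlets were planted and treated preemergence with compound formulated in a non-phytotoxic solvent mixture containing surfactant; plants 2 to 18 cm tall (1- to 4-leaf stage) received postemergence sprays of the same formulation. After 12 to 21 days in a greenhouse, injury was rated visually against untreated controls on a 0–100 scale (100 = complete control).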

[2] = test system: common mallow (Malva sylvestris)
In short: as §1

[3] = test system: annual bluegrass (Poa annua)
In short: as §1

[4] = test system: dallisgrass (Paspalum dilatatum)
In short: as §1

[5] = test system: tropical spiderwort (Commelina benghalensis)
In short: as §1

[6] = test system: field bindweed (Convolvulus arvensis)
In short: as §1

[7] = test system: black mustard (Brassica nigra)
In short: as §1

[8] = test system: johnsongrass (Sorghum halepense); settings: Preemergence
In short: as §1

[9] = test system: pitted morningglory (Ipomoea lacunosa)
In short: as §1

[10] = test system: Surinam grass (Brachiaria decumbens)
In short: as §1

[11] = test system: broadleaf signalgrass (Brachiaria platyphylla)
In short: as §1

[12] = test system: Italian ryegrass (Lolium multiflorum)
In short: as §1

[13] = test system: green foxtail (Setaria viridis)
In short: as §1

[14] = test system: goosegrass (Eleusine indica)
In short: as §1

[15] = Postemergence, 250 g ai/ha, scale 0 to 100
[16] = Postemergence, 16 g ai/ha, scale 0 to 100
[17] = Postemergence, 31 g ai/ha, scale 0 to 100
[18] = Postemergence, 62 g ai/ha, scale 0 to 100
[19] = Postemergence, 125 g ai/ha, scale 0 to 100
[20] = Preemergence, 16 g ai/ha, scale 0-100
[21] = Preemergence, 31 g ai/ha, scale 0-100
[22] = Preemergence, 62 g ai/ha, scale 0-100
[23] = Preemergence, 125 g ai/ha, scale 0-100
[24] = Preemergence, 250 g ai/ha, scale 0-100
[25] = Preemergence, 500 g ai/ha, scale 0 to 100

Nc1nc(C2CC2)nc(C(=O)OCc2ccccc2)c1Br [Compound 22, phenylmethyl 6-amino-5-bromo-2-cyclopropyl-4-pyrimidinecarboxylate]
Plant response rating, Bermudagrass [1, 15]: 65
Plant response rating, Bermudagrass [1, 16]: 15
Plant response rating, Bermudagrass [1, 17]: 35
Plant response rating, Bermudagrass [1, 18]: 35
Plant response rating, Bermudagrass [1, 19]: 40
Plant response rating, Bermudagrass [1, 20]: 0
Plant response rating, Bermudagrass [1, 21]: 0
Plant response rating, Bermudagrass [1, 22]: 0
Plant response rating, Bermudagrass [1, 23]: 0
Plant response rating, Bermudagrass [1, 24]: 30
Plant response rating, Mallow [2, 15]: 95
Plant response rating, Mallow [2, 16]: 40
Plant response rating, Mallow [2, 17]: 60
Plant response rating, Mallow [2, 19]: 85
Plant response rating, Mallow [2, 20]: 50
Plant response rating, Mallow [2, 21]: 50
Plant response rating, Mallow [2, 22]: 75
Plant response rating, Mallow [2, 23]: 80
Plant response rating, Mallow [2, 24]: 80
Plant response rating, Bluegrass [3, 15]: 75
Plant response rating, Bluegrass [3, 16]: 0
Plant response rating, Bluegrass [3, 17]: 0
Plant response rating, Bluegrass [3, 18]: 15
Plant response rating, Bluegrass [3, 19]: 40
Plant response rating, Bluegrass [3, 20]: 0
Plant response rating, Bluegrass [3, 21]: 0
Plant response rating, Bluegrass [3, 22]: 0
Plant response rating, Bluegrass [3, 23]: 30
Plant response rating, Bluegrass [3, 24]: 60
Plant response rating, Dallisgrass [4, 15]: 75
Plant response rating, Dallisgrass [4, 16]: 0
Plant response rating, Dallisgrass [4, 17]: 0
Plant response rating, Dallisgrass [4, 18]: 15
Plant response rating, Dallisgrass [4, 19]: 25
Plant response rating, Dallisgrass [4, 20]: 0
Plant response rating, Dallisgrass [4, 21]: 0
Plant response rating, Dallisgrass [4, 22]: 0
Plant response rating, Dallisgrass [4, 23]: 40
Plant response rating, Dallisgrass [4, 24]: 50
Plant response rating, Spiderwort [5, 15]: 98
Plant response rating, Spiderwort [5, 16]: 15
Plant response rating, Spiderwort [5, 17]: 40
Plant response rating, Spiderwort [5, 18]: 85
Plant response rating, Spiderwort [5, 19]: 95
Plant response rating, Spiderwort [5, 20]: 0
Plant response rating, Spiderwort [5, 21]: 50
Plant response rating, Spiderwort [5, 22]: 95
Plant response rating, Spiderwort [5, 23]: 100
Plant response rating, Spiderwort [5, 24]: 100
Plant response rating, Bindweed, Field [6, 15]: 100
Plant response rating, Bindweed, Field [6, 16]: 85
Plant response rating, Bindweed, Field [6, 17]: 100
Plant response rating, Bindweed, Field [6, 18]: 100
Plant response rating, Bindweed, Field [6, 19]: 100
Plant response rating, Bindweed, Field [6, 20]: 65
Plant response rating, Bindweed, Field [6, 21]: 75
Plant response rating, Bindweed, Field [6, 22]: 90
Plant response rating, Bindweed, Field [6, 23]: 90
Plant response rating, Bindweed, Field [6, 24]: 100
Plant response rating, Black Mustard [7, 15]: 95
Plant response rating, Black Mustard [7, 16]: 50
Plant response rating, Black Mustard [7, 17]: 75
Plant response rating, Black Mustard [7, 18]: 75
Plant response rating, Black Mustard [7, 19]: 95
Plant response rating, Black Mustard [7, 20]: 30
Plant response rating, Black Mustard [7, 21]: 35
Plant response rating, Black Mustard [7, 22]: 60
Plant response rating, Black Mustard [7, 23]: 65
Plant response rating, Black Mustard [7, 24]: 75
Plant response rating, Johnsongrass ([8]; 16 g ai/ha, scale 0-100): 0
Plant response rating, Johnsongrass ([8]; 31 g ai/ha, scale 0-100): 0
Plant response rating, Johnsongrass ([8]; 62 g ai/ha, scale 0-100): 20
Plant response rating, Johnsongrass ([8]; 125 g ai/ha, scale 0-100): 50
Plant response rating, Johnsongrass ([8]; 250 g ai/ha, scale 0-100): 80
Plant response rating, Morningglory [9, 15]: 100
Plant response rating, Morningglory [9, 16]: 50
Plant response rating, Morningglory [9, 17]: 85
Plant response rating, Morningglory [9, 18]: 85
Plant response rating, Morningglory [9, 19]: 95
Plant response rating, Morningglory [9, 20]: 20
Plant response rating, Morningglory [9, 21]: 50
Plant response rating, Morningglory [9, 22]: 60
Plant response rating, Morningglory [9, 23]: 90
Plant response rating, Morningglory [9, 24]: 90
Plant response rating, Surinam Grass [10, 15]: 95
Plant response rating, Surinam Grass [10, 16]: 0
Plant response rating, Surinam Grass [10, 17]: 15
Plant response rating, Surinam Grass [10, 18]: 35
Plant response rating, Surinam Grass [10, 19]: 65
Plant response rating, Surinam Grass [10, 20]: 0
Plant response rating, Surinam Grass [10, 21]: 0
Plant response rating, Surinam Grass [10, 22]: 0
Plant response rating, Surinam Grass [10, 23]: 35
Plant response rating, Surinam Grass [10, 24]: 90
Plant response rating, Signalgrass [11, 15]: 85
Plant response rating, Signalgrass [11, 16]: 5
Plant response rating, Signalgrass [11, 17]: 15
Plant response rating, Signalgrass [11, 18]: 25
Plant response rating, Signalgrass [11, 19]: 50
Plant response rating, Signalgrass [11, 20]: 0
Plant response rating, Signalgrass [11, 21]: 0
Plant response rating, Signalgrass [11, 22]: 0
Plant response rating, Signalgrass [11, 23]: 10
Plant response rating, Signalgrass [11, 24]: 80
Plant response rating, Ryegrass, Italian [12, 15]: 85
Plant response rating, Ryegrass, Italian [12, 16]: 0
Plant response rating, Ryegrass, Italian [12, 17]: 5
Plant response rating, Ryegrass, Italian [12, 18]: 15
Plant response rating, Ryegrass, Italian [12, 19]: 40
Plant response rating, Ryegrass, Italian [12, 20]: 0
Plant response rating, Ryegrass, Italian [12, 21]: 0
Plant response rating, Ryegrass, Italian [12, 22]: 0
Plant response rating, Ryegrass, Italian [12, 23]: 0
Plant response rating, Ryegrass, Italian [12, 24]: 50
Plant response rating, Foxtail, Green [13, 15]: 75
Plant response rating, Foxtail, Green [13, 16]: 0
Plant response rating, Foxtail, Green [13, 17]: 15
Plant response rating, Foxtail, Green [13, 18]: 25
Plant response rating, Foxtail, Green [13, 19]: 50
Plant response rating, Foxtail, Green [13, 20]: 0
Plant response rating, Foxtail, Green [13, 21]: 0
Plant response rating, Foxtail, Green [13, 22]: 0
Plant response rating, Foxtail, Green [13, 23]: 10
Plant response rating, Foxtail, Green [13, 24]: 20
Plant response rating, Goosegrass [14, 15]: 50
Plant response rating, Goosegrass [14, 16]: 5
Plant response rating, Goosegrass [14, 17]: 15
Plant response rating, Goosegrass [14, 18]: 25
Plant response rating, Goosegrass [14, 19]: 35
Plant response rating, Goosegrass [14, 20]: 0
Plant response rating, Goosegrass [14, 21]: 0
Plant response rating, Goosegrass [14, 22]: 0
Plant response rating, Goosegrass [14, 23]: 0
Plant response rating, Goosegrass [14, 24]: 0

CCOC(=O)c1nc(C2CC2)nc(N)c1Cl [Compound 4, ethyl 6-amino-5-chloro-2-cyclopropyl-4-pyrimidinecarboxylate]
Plant response rating, Bermudagrass [1, 22]: 20
Plant response rating, Bermudagrass [1, 23]: 90
Plant response rating, Bermudagrass [1, 24]: 95
Plant response rating, Bermudagrass [1, 25]: 100
Plant response rating, Mallow [2, 22]: 100
Plant response rating, Mallow [2, 23]: 100
Plant response rating, Mallow [2, 24]: 100
Plant response rating, Mallow [2, 25]: 100
Plant response rating, Bluegrass [3, 22]: 10
Plant response rating, Bluegrass [3, 23]: 60
Plant response rating, Bluegrass [3, 24]: 80
Plant response rating, Bluegrass [3, 25]: 100
Plant response rating, Dallisgrass [4, 22]: 0
Plant response rating, Dallisgrass [4, 23]: 50
Plant response rating, Dallisgrass [4, 24]: 95
Plant response rating, Dallisgrass [4, 25]: 100
Plant response rating, Spiderwort [5, 22]: 100
Plant response rating, Spiderwort [5, 23]: 100
Plant response rating, Spiderwort [5, 24]: 100
Plant response rating, Spiderwort [5, 25]: 100
Plant response rating, Bindweed, Field [6, 22]: 100
Plant response rating, Bindweed, Field [6, 23]: 100
Plant response rating, Bindweed, Field [6, 24]: 100
Plant response rating, Bindweed, Field [6, 25]: 100
Plant response rating, Black Mustard [7, 22]: 95
Plant response rating, Black Mustard [7, 23]: 95
Plant response rating, Black Mustard [7, 24]: 100
Plant response rating, Black Mustard [7, 25]: 100
Plant response rating, Johnsongrass ([8]; 62 g ai/ha, scale 0-100): 60
Plant response rating, Johnsongrass ([8]; 125 g ai/ha, scale 0-100): 75
Plant response rating, Johnsongrass ([8]; 250 g ai/ha, scale 0-100): 85
Plant response rating, Johnsongrass ([8]; 500 g ai/ha, scale 0 to 100): 95
Plant response rating, Morningglory [9, 22]: 100
Plant response rating, Morningglory [9, 23]: 100
Plant response rating, Morningglory [9, 24]: 100
Plant response rating, Morningglory [9, 25]: 100
Plant response rating, Surinam Grass [10, 22]: 30
Plant response rating, Surinam Grass [10, 23]: 60
Plant response rating, Surinam Grass [10, 24]: 80
Plant response rating, Surinam Grass [10, 25]: 95
Plant response rating, Signalgrass [11, 22]: 50
Plant response rating, Signalgrass [11, 23]: 70
Plant response rating, Signalgrass [11, 24]: 95
Plant response rating, Signalgrass [11, 25]: 95
Plant response rating, Ryegrass, Italian [12, 22]: 30
Plant response rating, Ryegrass, Italian [12, 23]: 60
Plant response rating, Ryegrass, Italian [12, 24]: 100
Plant response rating, Ryegrass, Italian [12, 25]: 100
Plant response rating, Foxtail, Green [13, 22]: 20
Plant response rating, Foxtail, Green [13, 23]: 70
Plant response rating, Foxtail, Green [13, 24]: 100
Plant response rating, Foxtail, Green [13, 25]: 100
Plant response rating, Goosegrass [14, 22]: 10
Plant response rating, Goosegrass [14, 23]: 60
Plant response rating, Goosegrass [14, 24]: 70
Plant response rating, Goosegrass [14, 25]: 90
